Source: patent US20080181877A1, “Method For Monitoring the Effect of Compounds on Foxc2 Expression” (LEANGENE AB, C/O CIT Ekonomiservice AB, priority 2006, published 2008)

Assays:
Foxc2 expression [1] = experiment: Monitoring Foxc2 expression in MEFs by X-gal staining; format: cell-based, mouse; settings: acute treatment; MEFs from heterozygous Foxc2nLacZ E13.5 embryos
Description: FIG. 4 specifies the expression of Foxc2 during adipocyte differentiation of mouse embryonic fibroblasts (MEFs), which were isolated from Foxc2nLacZ±E13.5 embryos as well as wt littermates as control. The MEFs were treated with adipocyte differentiation mix (0.5 mM IBMX, 0.25 μM Dex and 10 μg/mL insulin) and X-gal stained at different time points after start of differentiation. Expression of Foxc2 increases during the course of adipocyte differentiation as judge by increasing β-galactosidase activity.
MEFs were isolated from E13.5 embryos from Foxc2nLacZ±heterozygous intercrosses and genotyped by PCR on DNA from the tail. The head, limbs and viscera were removed from embryos and the remains were minced with a razor blade and incubated in 0.25% trypsin, 0.1% EDTA for 1 h at 37° C. The cell suspension was plated in DMEM containing 10% fetal calf serum and antibiotics (100 units of penicillin and 100 μg/mL streptomycin). Once the cultures reached confluency, 1×10^6 cells were plated on 10-cm tissue culture plates (Falcon) and considered passage 0.
A cell based high-throughput screening system has been established by isolation of MEFs from heterozygous Foxc2nLacZ±E13.5 embryos as well as from wt embryos as a control.

Foxc2 expression [2] = experiment: High through-put screening: beta-gal activity (Beta-glo kit) in Foxc2nLacZ MEFs differentiated into adipocytes; format: cell-based, mouse
Description: Primary MEFs from both wild type and Foxc2nLacZ knock-in mice were maintained in DMEM supplied with 10% FBS and antibiotics. For differentiation into adipocytes the MEFs were grown until confluency and then stimulated (Day 0) with a differentiation media (DMEM, 10% FBS, antibiotics, 1 uM dexamethasone, 0.5 mM isobutyl-methyl-xanthine, 10 ug/mL insulin, 20 ng/ml FGF (all from Sigma), and 1 uM rosiglitazone (Alexis)). New differentiation media was added at day 3. At day 5 the differentiation media was removed and the cells were cultured in a media containing DMEM, 10% FBS, antibiotics, 10 ug/mL insulin, 1 uM rosiglitazone, and 20 ng/ml FGF. This media was changed every second day. From day 10 the cells were kept DMEM supplied with 10% FBS and antibiotics for 24 hours as a wash out period before initiating the experiments.
Foxc2nLacZ MEFs were plated onto gelatine coated 96 well plates. Differentiation was initialized after confluence according to protocol. […] After a wash out period for 24 hours the cells were subjected to different compounds for the indicated time points and subsequently induction of β-gal enzyme activity was measured using the Beta-glo kit (Promega) and a luminometric plate reader. Confluent cells differentiated into adipocytes were detected by increased X-gal staining (FIG. 5a-d), Foxc2nLacZ protein levels increased transiently during the differentiation process. […]

| Compound | Foxc2nLacZ protein levels (X-gal staining) (Foxc2 expression [1]) | beta-gal activity (Foxc2 expression [2]; Foxc2nLacZ MEFs differentiated into adipocytes, 96 well plates, 50 μg per well at 0 h, acute treatment, Beta-glo kit) | levels of reporter gene over time (Foxc2 expression [2]; single dose, gene construct with in frame fusion of Foxc2 with a reporter gene) |
| --- | --- | --- | --- |
| insulin: Insulin, known to be an inducer of Foxc2, may be utilized as a control | levels could be induced | – | – |
| CCCCCCCCCCCCCC(=O)O[C@@H]1[C@@H](C)[C@@]2(O)[C@@H](C=C(CO)C[C@]3(O)C(=O)C(C)=C[C@@H]23)[C@@H]2C(C)(C)[C@]12OC(C)=O [TPA, 12-O-tetradecanoylphorbol-13-acetate] | – | increase in beta-gal activity | moderate increasing of the levels of reporter gene remaining for long periods at similar levels |
| TNFα | levels could be induced | – | – |
